Results on 23 molecules are retold here after patent publication US12595248B2, “PRMT5 inhibitors” (Merck Sharp & Dohme LLC, priority 2019, dated 2026).

Read-outs that look alike come from different tables or passages of the source.

In one experiment the target is T1, PRMT5 (Homo sapiens, UniProt O14744).
T1 construct: seeded with 4000 MCF-7 cells in 30 μl media; endogenous in cells; host or cells: MCF-7 cells
Put plainly: PRMT5 Cell Target Engagement (TE) Assay. As to conditions: MCF-7 cells, treated for 3 days, symmetric dimethylation of arginine (SDMA) by high content imaging. It is filed as cell-based. In short, it runs like this: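 MCF-7 cells treated 3 days at 37 °C with a ten-point 1:3 titration from 10000 nM. Fixed cells immunostained with anti-SDMA and Alexa488 secondary; nuclear fluorescence quantified by high-content imaging versus DMSO wells, with IC50 from a 4-parameter fit.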

The target in experiment [1] is T2, PRMT5-MEP50 enzyme complex (Homo sapiens, UniProt O14744).
T2 construct: Full-length (FL)-PRMT5-MEP50 enzyme complex (recombinant proteins from baculovirus-transfected Sf21 cells: FL-PRMT5; MW=73837 kDa and FL-MEP50; MW=38614); made in house; host or cells: baculovirus-transfected Sf21 cells
T2 sequence (O14744 whole entry): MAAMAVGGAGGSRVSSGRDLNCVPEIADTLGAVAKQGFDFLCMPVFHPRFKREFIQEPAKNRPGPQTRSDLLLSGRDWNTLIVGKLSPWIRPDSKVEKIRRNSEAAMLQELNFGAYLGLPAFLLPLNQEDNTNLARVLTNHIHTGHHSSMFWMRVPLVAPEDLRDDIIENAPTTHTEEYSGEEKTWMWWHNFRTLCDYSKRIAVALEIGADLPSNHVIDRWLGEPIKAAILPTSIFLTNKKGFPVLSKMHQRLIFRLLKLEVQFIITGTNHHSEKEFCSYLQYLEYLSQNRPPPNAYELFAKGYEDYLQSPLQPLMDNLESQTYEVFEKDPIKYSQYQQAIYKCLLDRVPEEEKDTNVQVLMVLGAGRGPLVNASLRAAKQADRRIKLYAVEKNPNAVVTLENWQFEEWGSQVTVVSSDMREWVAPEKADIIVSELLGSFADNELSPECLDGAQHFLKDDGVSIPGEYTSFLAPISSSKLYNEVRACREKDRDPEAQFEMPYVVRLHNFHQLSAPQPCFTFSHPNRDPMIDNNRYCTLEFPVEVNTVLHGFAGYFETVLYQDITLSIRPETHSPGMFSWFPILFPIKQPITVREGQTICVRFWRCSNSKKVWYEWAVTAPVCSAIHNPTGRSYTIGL
T2 sequence (Q9BQA1 whole entry partner): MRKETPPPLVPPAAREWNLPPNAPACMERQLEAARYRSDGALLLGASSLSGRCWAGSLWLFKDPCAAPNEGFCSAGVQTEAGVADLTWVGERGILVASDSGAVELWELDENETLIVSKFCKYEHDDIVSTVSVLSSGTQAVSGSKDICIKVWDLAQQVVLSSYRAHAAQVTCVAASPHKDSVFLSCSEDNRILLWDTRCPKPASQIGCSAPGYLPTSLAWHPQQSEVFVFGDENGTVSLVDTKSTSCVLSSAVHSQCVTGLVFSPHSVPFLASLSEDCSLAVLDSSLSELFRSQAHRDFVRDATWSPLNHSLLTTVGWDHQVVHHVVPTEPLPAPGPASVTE
The experiment is described as follows: PRMT5-MEP50 Enzyme Methylation Assay (Version A). The class given is biochemical. The procedure: PRMT5-MEP50 Enzyme Methylation Assay (Version A)
PRMT5-MEP50 biochemical assay is a direct measurement of the methylation activity of the enzyme complex on a short peptide substrate derived from the N-terminus of H4 histone. Methylation experiment was performed with recombinant PRMT5-MEP50 protein complex. The assessment of inhibitory effect of small molecules was measured by the effectiveness of the compounds to inhibit this reaction (EC50).
In this assay, the potency (EC50) of each compound was determined from a twenty-point (1:2 serial dilution; top compound concentration of 100000 nM) titration curve using the following outlined procedure. To each well of a white ProxiPlus 384 well-plate, 100 nL of compound (1% DMSO in final assay volume of 10 μL) was dispensed, followed by the addition of 8 μL of 1× assay buffer (50 mM Bicine pH 8.0, 1 mM DTT, 0.004% Tween20, 0.01% BSA) containing 1.25 nM of Full-length (FL)-PRMT5-MEP50 enzyme complex (recombinant proteins from baculovirus-transfected Sf21 cells: FL-PRMT5; MW=[…] and FL-MEP50; MW=38614) and 1 μL of 150 μM S-(5′-Adenosyl)-L-Methionine Chloride (SAM). A plate was sealed and placed in a 37° C. humidified chamber for a 60 minutes pre-incubation with compound. Subsequently, each reaction was initiated by the addition of 1 μL 1× assay buffer containing 750 nM biotinylated H4R3 (MeI) peptide. The final reaction in each well of 10 μL consists of 1.0 nM PRMT5-MEP50, 75 nM biotinylated-peptide, and 15 μM SAM. Methylation reactions were allowed to proceed for 150 minutes in a sealed plate at 37° C. Reactions were immediately quenched by the addition of 1 μL of 5% formic acid. A plate was then frozen and shipped to SAMDI™ Tech Inc. to determine the percent conversion from H4R3 (MeI) to H4R3 (Me2). Dose-response curves were generated by plotting percent effect (% product conversion; Y-axis) vs. Log 10 compound concentrations (X-axis). EC50 values were determined by non-linear regression according to models for either sigmoidal (4 parameters) or biphasic (7 parameters) dose-response curves.

The mark [2] stands for this setting: only one EC50 shown: 4 parameters single site sigmoidal model, 60 min pre-incubation with SAM, read-out: Enzyme Methylation Assay Version A (EC50).
The mark [3] stands for this setting: first of two EC50s: 7 parameters biphasic model, read-out: Enzyme Methylation Assay Version A (EC50_1).
Setting [4] is: second of two EC50s: 7 parameters biphasic model, read-out: Enzyme Methylation Assay Version A (EC50_2).

T1 sequence (O14744 whole entry): as the sequence (O14744 whole entry) above
T1 sequence (Q9BQA1 whole entry partner): as the sequence (Q9BQA1 whole entry partner) above

Consider `O=C(c1cc(NC2CCN3C(=O)CCC3C2)ncc1F)N1CC[C@H](N2CCc3ccccc3C2)[C@@H](O)C1` (single isomer, unassigned) [Example 116], for which the values for the EC50 (at PRMT5; in experiment [1] (setting [2])) were 6.6 nM and 3.9 nM, respectively.
Turning to `O=C(c1cc(NC2CCN3C(=O)CCC3C2)ncc1F)N1CC[C@H](N2CCc3ccccc3C2)[C@@H](O)C1` (single isomer, unassigned) [Example 117], the EC50 on PRMT5 came to 3.3 nM; in experiment [1] (setting [2]), 1.8 nM.
Turning to `O=C(c1cc(NC2CCN3C(=O)CCC3C2)ncc1F)N1CC[C@H](N2CCc3ccccc3C2)[C@@H](O)C1` (single isomer, unassigned) [Example 118], the EC50 at PRMT5 amounted to 55 nM; in experiment [1] (setting [3]), 2.9 nM; in experiment [1] (setting [4]), 10600 nM.
With `CC(=O)N1CC2CC1CC2Nc1cc(C(=O)N2CC[C@H](N3CCc4ccccc4C3)[C@@H](O)C2)c(F)cn1` (single isomer, unassigned) [Example 119], the EC50 on PRMT5 was determined as 15 nM; in experiment [1] (setting [2]), 3.5 nM.
Consider `CC(=O)N1CC2CC1CC2Nc1cc(C(=O)N2CC[C@H](N3CCc4ccccc4C3)[C@@H](O)C2)c(F)cn1` (single isomer, unassigned) [Example 120], for which the EC50 at PRMT5 amounted to 316 nM; in experiment [1] (setting [3]), 20 nM; in experiment [1] (setting [4]) it was 5490 nM.
Turning to `CC1(C)CC1(C#N)c1cnc2nc(C(=O)N3CC[C@H](N4CCc5ccccc5C4)[C@@H](O)C3)cn2c1` (single isomer, unassigned) [Example 127], the EC50 on PRMT5 was 12 nM; in experiment [1] (setting [2]), 0.4 nM.
On to `CC1(C)CC1(C#N)c1cnc2nc(C(=O)N3CC[C@H](N4CCc5ccccc5C4)[C@@H](O)C3)cn2c1` (single isomer, unassigned) [Example 128], for which the EC50 is 1.1 nM at PRMT5 and 0.3 nM in experiment [1] (setting [2]).
The like results for `CC1CC1c1cnc2nc(C(=O)N3CCC(N4CCc5ccccc5C4)[C@@H](O)C3)cn2c1` (single isomer, unassigned) [Example 129] were, in that order, 6.4 nM and 1.4 nM.
For `CC1CC1c1cnc2nc(C(=O)N3CCC(N4CCc5ccccc5C4)[C@@H](O)C3)cn2c1` (single isomer, unassigned) [Example 130] the same measures were 3.8 nM and 0.7 nM.
The like results for `CC1CC1c1cnc2nc(C(=O)N3CCC(N4CCc5ccccc5C4)[C@@H](O)C3)cn2c1` (single isomer, unassigned) [Example 131] were, in that order, 4.6 nM and 0.5 nM.
For the molecule `CC(=O)N1CCC(Nc2nccc(C(=O)N3CC[C@H](N4CCc5ccccc5C4)[C@@H](O)C3)c2F)CC1` [Example 18, 1-(4-((4-((3S,4S)-4-(3,4-dihydroisoquinolin-2(1H)-yl)-3-hydroxypiperidine-l-carbonyl)-3-fluoropyridin-2-yl)amino)piperidin-1-yl)ethan-1-one], the EC50 at PRMT5 is 54 nM; in experiment [1] (setting [3]) it was roughly 3 nM; in experiment [1] (setting [4]) it was 6760 nM.
On to `CC(=O)N1CCC(Nc2nccc(C(=O)N3CC[C@@H](N4CCc5ccccc5C4)[C@H](O)C3)c2F)CC1` [Example 19, 1-(4-((4-((3R,4R)-4-(3,4-dihydroisoquinolin-2(1H)-yl)-3-hydroxypiperidine-1-carbonyl)-3-fluoropyridin-2-yl)amino)piperidin-1-yl)ethan-1-one], for which the EC50 amounted to 9800 nM on PRMT5 and 507 nM in experiment [1] (setting [2]).
As to `CCOc1nc(Br)cn2cc(C(=O)N3CC[C@H](N4CCc5ccccc5C4)[C@@H](O)C3)nc12` [Example 51, (6-bromo-8-ethoxyimidazo[1,2-a]pyrazin-2-yl)((3S,4S)-4-(3,4-dihydroisoquinolin-2(1H)-yl)-3-hydroxypiperidin-1-yl)methanone], the EC50 was determined as 6.3 nM on PRMT5, 0.4 nM in experiment [1] (setting [3]) and 120 nM in experiment [1] (setting [4]).
For the molecule `O=C(c1ccnc(C(F)F)c1)N1CC[C@H](N2CCc3ccccc3C2)[C@@H](O)C1` [Example 52, (2-(difluoromethyl)pyridin-4-yl)((3S,4S)-4-(3,4-dihydroisoquinolin-2(1H)-yl)-3-hydroxypiperidin-1-yl)methanone], the EC50 is greater than 10000 nM on PRMT5 and 580 nM in experiment [1] (setting [2]).
`O=C(c1ccnc(OC(F)F)c1)N1CC[C@H](N2CCc3ccccc3C2)[C@@H](O)C1` [Example 53, (2-(difluoromethoxy)pyridin-4-yl)((3S,4S)-4-(3,4-dihydroisoquinolin-2(1H)-yl)-3-hydroxypiperidin-1-yl)methanone]: the EC50 at PRMT5 was greater than 10000 nM; in experiment [1] (setting [3]), roughly 28 nM; in experiment [1] (setting [4]), greater than 10000 nM.
`Cc1nc(C)c(-c2cnc3nc(C(=O)N4CC[C@H](N5CCc6ccccc6C5)[C@@H](O)C4)cn3c2)s1` [Example 56, [(3S,4S)-4-(3,4-dihydroisoquinolin-2(1H)-yl)-3-hydroxypiperidin-1-yl][6-(2,4-dimethyl-1,3-thiazol-5-yl)imidazo[1,2-a]pyrimidin-2-yl]methanone]: the EC50 was 1.8 nM at PRMT5 and 0.4 nM in experiment [1] (setting [2]).
`Cn1nccc1-c1cnc2nc(C(=O)N3CC[C@H](N4CCc5ccccc5C4)[C@@H](O)C3)cn2c1` [Example 57, [(3S,4S)-4-(3,4-dihydroisoquinolin-2(1H)-yl)-3-hydroxypiperidin-1-yl][6-(1-methyl-1H-pyrazol-5-yl)imidazo[1,2-a]pyrimidin-2-yl]methanone]: the EC50 at PRMT5 turned out to be 8.7 nM; in experiment [1] (setting [2]) it was 1.1 nM.
For `CO[C@H](C)c1cc(C(C)C)cn2cc(C(=O)N3CC[C@H](N4CCc5ccccc5C4)[C@@H](O)C3)nc12` [Example 58, [(3S,4S)-4-(3,4-dihydroisoquinolin-2(1H)-yl)-3-hydroxypiperidin-1-yl]{8-[(1R)-1-methoxyethyl]-6-(propan-2-yl)imidazo[1,2-a]pyridin-2-yl}methanone] the same measures were 0.6 nM and 0.3 nM.
On to `CO[C@H](C)c1cc(C)cn2cc(C(=O)N3CC[C@H](N4CCc5ccccc5C4)[C@@H](O)C3)nc12` [Example 59, [(3S,4S)-4-(3,4-dihydroisoquinolin-2(1H)-yl)-3-hydroxypiperidin-1-yl]{8-[(1R)-1-methoxyethyl]-6-methylimidazo[1,2-a]pyridin-2-yl}methanone], for which the EC50 was 4.4 nM on PRMT5 and 0.5 nM in experiment [1] (setting [2]).
For `CC(C)N1CCNc2cc(C(=O)N3CC[C@H](N4CCc5ccccc5C4)[C@@H](O)C3)ccc2C1=O` [Example 62, 8-((3S,4S)-4-(3,4-dihydroisoquinolin-2(1H)-yl)-3-hydroxypiperidine-1-carbonyl)-4-isopropyl-1,2,3,4-tetrahydro-5H-benzo[e][1,4]diazepin-5-one] the same measures were 21 nM and 3.6 nM.
As for `O=C(c1ccc2c(O)c(C3CC3)cnc2c1)N1CC[C@H](N2CCc3ccccc3C2)[C@@H](O)C1` [Example 63, (3-cyclopropyl-4-hydroxyquinolin-7-yl)((3S,4S)-4-(3,4-dihydroisoquinolin-2(1H)-yl)-3-hydroxypiperidin-1-yl)methanone], the EC50 was 140 nM on PRMT5, 0.7 nM in experiment [1] (setting [3]) and 3310 nM in experiment [1] (setting [4]).
The like results for `CCN1CCNc2cc(C(=O)N3CC[C@H](N4CCc5ccccc5C4)[C@@H](O)C3)ccc2C1=O` [Example 64, 8-((3S,4S)-4-(3,4-dihydroisoquinolin-2(1H)-yl)-3-hydroxypiperidine-1-carbonyl)-4-ethyl-1,2,3,4-tetrahydro-5H-benzo[e][1,4]diazepin-5-one] were, in that order, 45 nM, 1.9 nM and 1660 nM.
As to `O=C(c1ccc2c(c1)NCCN(C1CCOC1)C2=O)N1CC[C@H](N2CCc3ccccc3C2)[C@@H](O)C1` (stereo partly drawn) [Example 65, 8-((3S,4S)-4-(3,4-dihydroisoquinolin-2(1H)-yl)-3-hydroxypiperidine-1-carbonyl)-4-(tetrahydrofuran-3-yl)-1,2,3,4-tetrahydro-5H-benzo[e][1,4]diazepin-5-one], the EC50 at PRMT5 is 9.6 nM; in experiment [1] (setting [2]), 3.5 nM.
